The values that follow come from patent publication US3976762A (priority 1974, dated 1976).

Where two headings read alike, the source gives them in different places.

For this data set the following is noted: mouse, in vivo; for Urine and Feces, percent of total injected radioactivity: iv.

Regarding Tc-99m-1-aminobutylphosphonic acid, the “Localization / excretion of the complex (in words)” value is given as “rapidly excreted via the kidney”. Further, the “Urine and Feces, percent of total injected radioactivity” value (“Urine and Feces, percent” below) (0 h) amounted to 0.0. For the same substance, the “Urine and Feces, percent” value (0.5 h) is 74.2. Also, the “Urine and Feces, percent” value (1 h) was determined as 85.0. Moreover, the “Urine and Feces, percent” value (2 h) is listed as 90.7. In addition, for the setting “4 h”, the “Urine and Feces, percent” value is 86.6.

Take Tc-99m-1,5-diaminopentylphosphonic acid: the “Localization / excretion of the complex (in words)” value is “high uptake of the complex by the kidney without rapid excretion”. Also, where the note is “0 h”, the “Urine and Feces, percent” value is 0.0. The “Urine and Feces, percent” value (0.5 h) came out at 47.3. Where the note is “1 h”, the “Urine and Feces, percent” value is given as 55.0. Further, under “2 h”, the “Urine and Feces, percent” value was 61.3. Further, for the setting “24 h”, the “Urine and Feces, percent” value was 83.2.
